Toxic doses and inconclusive results are not listed. Cut-off read from the data, not from the text of the source: active = T/C of 150% or more; inactive = T/C below 125%.
System: L1210 leukemia ip in BDF1 mice, survival T/C
Test: NCI In Vivo Anticancer Drug Screen. Data for tumor model L1210 Leukemia (intraperitoneal) in B6D2F1 (BDF1) mice
Conditions: endpoint: mean survival time, higher = longer survival
How it was run: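 Antitumor effect is assessed in tumor-bearing animals. Survival in the compound arm is compared with a vehicle-dosed control arm and expressed as their quotient.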

[1] = dose: 75.0 mg/kg/injection, schedule: Q01DX001 (ip), vehicle: carboxymethylcellulose (CMC)
[2] = dose: 150.0 mg/kg/injection, schedule: Q01DX001 (ip), vehicle: carboxymethylcellulose (CMC)
[3] = dose: 300.0 mg/kg/injection, schedule: Q01DX001 (ip), vehicle: carboxymethylcellulose (CMC)
[4] = dose: 25.0 mg/kg/injection, schedule: Q01DX009 (ip), vehicle: Klucel (hydroxypropylcellulose) (HPC)
[5] = dose: 50.0 mg/kg/injection, schedule: Q01DX009 (ip), vehicle: Klucel (hydroxypropylcellulose) (HPC)
[6] = dose: 100.0 mg/kg/injection, schedule: Q04DX003 (ip), vehicle: Klucel (hydroxypropylcellulose) (HPC)
[7] = dose: 200.0 mg/kg/injection, schedule: Q04DX003 (ip), vehicle: Klucel (hydroxypropylcellulose) (HPC)
[8] = dose: 400.0 mg/kg/injection, schedule: Q04DX003 (ip), vehicle: Klucel (hydroxypropylcellulose) (HPC)
[9] = dose: 100.0 mg/kg/injection, schedule: Q01DX009 (ip), vehicle: Klucel (hydroxypropylcellulose) (HPC)
[10] = dose: 200.0 mg/kg/injection, schedule: Q01DX009 (ip), vehicle: Klucel (hydroxypropylcellulose) (HPC)
[11] = dose: 400.0 mg/kg/injection, schedule: Q01DX009 (ip), vehicle: Klucel (hydroxypropylcellulose) (HPC)
[12] = dose: 50.0 mg/kg/injection, schedule: Q01DX009 (ip), vehicle: saline with Tween-80
[13] = dose: 100.0 mg/kg/injection, schedule: Q04DX002 (ip), vehicle: Klucel (hydroxypropylcellulose) (HPC)
[14] = dose: 200.0 mg/kg/injection, schedule: Q04DX002 (ip), vehicle: Klucel (hydroxypropylcellulose) (HPC)
[15] = dose: 400.0 mg/kg/injection, schedule: Q04DX002 (ip), vehicle: Klucel (hydroxypropylcellulose) (HPC)
[16] = dose: 100.0 mg/kg/injection, schedule: Q04DX002 (ip), vehicle: saline with Tween-80
[17] = dose: 200.0 mg/kg/injection, schedule: Q04DX002 (ip), vehicle: saline with Tween-80
[18] = dose: 100.0 mg/kg/injection, schedule: Q01DX009 (ip), vehicle: saline with Tween-80
[19] = dose: 200.0 mg/kg/injection, schedule: Q01DX009 (ip), vehicle: saline with Tween-80
[20] = dose: 100.0 mg/kg/injection, schedule: Q04DX003 (ip), vehicle: saline with Tween-80

Measured: T/C

CC1C(O)C(O)C(C(=O)O)ON1C(=O)c1ccccc1 (stereo not drawn)
inactive: dose: 100.0 mg/kg/injection, schedule: Q04DX002 (ip), vehicle: saline 100 % of control | dose: 200.0 mg/kg/injection, schedule: Q04DX002 (ip), vehicle: saline 100 % of control | dose: 400.0 mg/kg/injection, schedule: Q04DX002 (ip), vehicle: saline 110 % of control

CC(C)C(COC(=O)c1ccc(N)cc1)NC1CCCCC1C (stereo not drawn)
inactive: [1] 97 % of control | [2] 95 % of control | [3] 89 % of control

C/C=C/C[n+]1c(C)ccc2ccccc21
inactive: dose: 12.5 mg/kg/injection, schedule: Q01DX001 (ip), vehicle: saline 98 % of control | dose: 25.0 mg/kg/injection, schedule: Q01DX001 (ip), vehicle: saline 96 % of control | dose: 50.0 mg/kg/injection, schedule: Q01DX001 (ip), vehicle: saline 93 % of control

Cc1ccc(NC(=O)Oc2cccnc2)cc1
inactive: dose: 12.5 mg/kg/injection, schedule: Q01DX009 (ip), vehicle: Klucel (hydroxypropylcellulose) (HPC) 107 % of control | [4] 107 % of control | [5] 96 % of control

C=CCN(CC=C)c1nn[nH]n1
inactive: [6] 92 % of control | [7] 88 % of control | [8] 88 % of control

CN(C)Cc1cc(C(C)(C)C)ccc1O
inactive: dose: 100.0 mg/kg/injection, schedule: Q04DX003 (ip), vehicle: saline 95 % of control | dose: 200.0 mg/kg/injection, schedule: Q04DX003 (ip), vehicle: saline 91 % of control

O=c1[nH]/c(=C\c2ccc3c(c2)OCO3)c(=O)[nH]/c1=C\c1ccc2c(c1)OCO2
inactive: [9] 94 % of control | [6] 93 % of control | [10] 86 % of control | [7] 96 % of control | [11] 89 % of control | [8] 98 % of control

CCSC1=C(SCC)C(=O)C(SCC)=C(SCC)C1=O
inactive: dose: 3.1 mg/kg/injection, schedule: Q01DX009 (ip), vehicle: saline with Tween-80 110 % of control | dose: 6.25 mg/kg/injection, schedule: Q01DX009 (ip), vehicle: saline with Tween-80 105 % of control | dose: 12.5 mg/kg/injection, schedule: Q01DX009 (ip), vehicle: saline with Tween-80 105 % of control | dose: 25.0 mg/kg/injection, schedule: Q01DX009 (ip), vehicle: saline with Tween-80 91 % of control | [12] 103 % of control

OC(c1ccccc1)(c1ccccc1)C1c2ccccc2-c2[nH]c3ccccc3c21 (stereo not drawn)
inactive: dose: 200.0 mg/kg/injection, schedule: Q01DX001 (ip), vehicle: saline with Tween-80 91 % of control

Cc1nc(N)[nH]c(=O)c1CCCN=Cc1ccc([N+](=O)[O-])cc1
inactive: dose: 18.75 mg/kg/injection, schedule: Q01DX001 (ip), vehicle: Klucel (hydroxypropylcellulose) (HPC) 95 % of control | dose: 37.5 mg/kg/injection, schedule: Q01DX001 (ip), vehicle: Klucel (hydroxypropylcellulose) (HPC) 101 % of control | dose: 75.0 mg/kg/injection, schedule: Q01DX001 (ip), vehicle: Klucel (hydroxypropylcellulose) (HPC) 101 % of control

Fc1cc(N(CCCl)CCCl)ccc1CNCCCNCc1ccc(N(CCCl)CCCl)cc1F
inactive: dose: 50.0 mg/kg/injection, schedule: Q01DX001 (ip), vehicle: carboxymethylcellulose (CMC) 93 % of control

S=C(C/C=C/CC(=S)SN(c1ccccc1)c1ccccc1)SN(c1ccccc1)c1ccccc1
inactive: [9] 91 % of control | [10] 95 % of control | [11] 90 % of control

O=[N+]([O-])c1ccc2nc(-c3ccccc3)nn2c1
inactive: dose: 100.0 mg/kg/injection, schedule: Q01DX001 (ip), vehicle: acetone 92 % of control | dose: 200.0 mg/kg/injection, schedule: Q01DX001 (ip), vehicle: acetone 87 % of control | dose: 400.0 mg/kg/injection, schedule: Q01DX001 (ip), vehicle: acetone 93 % of control

NC(N)=N/N=C/c1ccc(C(=O)O)cc1
inactive: dose: 15.0 mg/kg/injection, schedule: Q01DX Z (ip), vehicle: saline 103 % of control | dose: 30.0 mg/kg/injection, schedule: Q01DX Z (ip), vehicle: saline 104 % of control | dose: 60.0 mg/kg/injection, schedule: Q01DX Z (ip), vehicle: saline 106 % of control | dose: 120.0 mg/kg/injection, schedule: Q01DX Z (ip), vehicle: saline 110 % of control | dose: 120.0 mg/kg/injection, schedule: Q01DX Z (oral), vehicle: saline 92 % of control | dose: 240.0 mg/kg/injection, schedule: Q01DX Z (ip), vehicle: saline 87 % of control | dose: 240.0 mg/kg/injection, schedule: Q01DX Z (oral), vehicle: saline 90 % of control | dose: 480.0 mg/kg/injection, schedule: Q01DX Z (oral), vehicle: saline 101 % of control | dose: 960.0 mg/kg/injection, schedule: Q01DX Z (oral), vehicle: saline 92 % of control

CC(C)(C)C1CCNC(=O)CC1 (stereo not drawn)
inactive: dose: 10.0 mg/kg/injection, schedule: Q01DX009 (ip), vehicle: Klucel (hydroxypropylcellulose) (HPC) 95 % of control | dose: 20.0 mg/kg/injection, schedule: Q01DX009 (ip), vehicle: Klucel (hydroxypropylcellulose) (HPC) 103 % of control | dose: 20.0 mg/kg/injection, schedule: Q04DX003 (ip), vehicle: Klucel (hydroxypropylcellulose) (HPC) 107 % of control | dose: 40.0 mg/kg/injection, schedule: Q04DX003 (ip), vehicle: Klucel (hydroxypropylcellulose) (HPC) 103 % of control | [1] 102 % of control | [2] 102 % of control | [3] 96 % of control

COc1ccc(/C=N/NC(=O)c2ccccc2N)cc1
inactive: [13] 98 % of control | [14] 106 % of control | [15] 106 % of control

N#C/C(=C\C1CCCCC1Cl)C1CCC([N+](=O)[O-])CC1 (stereo not drawn)
inactive: dose: 50.0 mg/kg/injection, schedule: Q04DX002 (ip), vehicle: saline with Tween-80 91 % of control | [16] 91 % of control | [17] 97 % of control

CC(C)=NNS(=O)(=O)c1ccccc1
inactive: [12] 106 % of control | [18] 108 % of control | [19] 101 % of control

C=C(NC(=O)C(NC(=O)C(CCCCN)NC(=O)C1CSC(C)C2NC(=O)C(CC(C)C)NC(=O)C(NC(=O)C(CCC(N)=O)NC(=O)C(CC(C)C)NC(=O)C(Cc3ccccc3)NC(=O)C3CSC(C)C(NC(=O)C(NC(=O)C4CSC(C)C(NC(=O)C5CSCC(NC(=O)C(CCCCN)NC(=O)C(N)Cc6c[nH]c7ccccc67)C(=O)NC(CCC(=O)O)C(=O)NC(=C)C(=O)NC(CC(C)C)C(=O)N5)C(=O)N5CCCC5C(=O)NCC(=O)N4)C(C)C)C(=O)NCC(=O)NC(C)C(=O)NC(CC(C)C)C(=O)NC(CCC(N)=O)C(=O)N/C(=C/C)C(=O)N3)C(C)SCC(NC2=O)C(=O)NC(CC(N)=O)C(=O)N1)C(C)CC)C(=O)NC(CCCCN)C(=O)O (stereo not drawn)
inactive: [16] 108 % of control | [17] 94 % of control | dose: 400.0 mg/kg/injection, schedule: Q04DX002 (ip), vehicle: saline with Tween-80 92 % of control

O=C(SCc1ccccc1)c1cccnc1
inactive: [20] 99 % of control

O=[N+]([O-])c1ccc(N/N=C(/CCCCl)c2ccccc2)c([N+](=O)[O-])c1
inactive: [20] 96 % of control | dose: 200.0 mg/kg/injection, schedule: Q04DX003 (ip), vehicle: saline with Tween-80 95 % of control | dose: 400.0 mg/kg/injection, schedule: Q04DX003 (ip), vehicle: saline with Tween-80 91 % of control

O=C(/C=C/c1ccc([N+](=O)[O-])o1)c1cccc([N+](=O)[O-])c1
inactive: [4] 100 % of control | [5] 103 % of control

CCCCN(CCCC)c1ccc(N=C(C#N)c2ccc(N(CCCC)CCCC)cc2)cc1
inactive: [9] 96 % of control | [10] 96 % of control | [11] 105 % of control

CCCCCCC(=O)C(C)C
inactive: [9] 93 % of control | [6] 89 % of control | [10] 96 % of control | [7] 88 % of control | [11] 106 % of control | [8] 98 % of control

O=C1CS/C(=N/N=C/c2ccccc2)N1
inactive: [12] 104 % of control | [18] 91 % of control | [19] 95 % of control

O=C(O)COc1c(F)cc([N+](=O)[O-])cc1[N+](=O)[O-]
inactive: [13] 106 % of control | [14] 91 % of control | [15] 111 % of control
